Measurements from paper PMC9449960, “Pamoic acid is an inhibitor of HMGB1·CXCL12 elicited chemotaxis and reduces inflammation in murine models of Pseudomonas aeruginosa pneumonia” (Molecular Medicine, 2022).

What was measured:
[1] = biological target: T1, CXCL12 (Homo sapiens, UniProt P48061); test: NMR titration of […]-CXCL12 (chemical shift perturbation); assay type: binding
T1 construct: recombinant human CXCL12

[2] = biological target: T2, HMGB1 (Mus musculus, UniProt P63158); test: NMR 1H-15N HSQC titration with lineshape analysis; STD, waterLOGSY, NOEs; assay type: binding
T2 construct: residues 1–215
T2 sequence (P63158 1-215): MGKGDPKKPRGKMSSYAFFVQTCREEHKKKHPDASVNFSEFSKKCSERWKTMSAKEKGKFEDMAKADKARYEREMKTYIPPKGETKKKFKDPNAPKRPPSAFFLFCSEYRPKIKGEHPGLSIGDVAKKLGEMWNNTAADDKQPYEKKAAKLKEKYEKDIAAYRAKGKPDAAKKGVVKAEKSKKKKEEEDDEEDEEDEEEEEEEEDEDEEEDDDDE

T1 sequence (P48061 22-93): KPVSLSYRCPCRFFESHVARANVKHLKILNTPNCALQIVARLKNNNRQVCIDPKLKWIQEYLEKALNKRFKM

For `O=C(O)c1cc2ccccc2c(Cc2c(O)c(C(=O)O)cc3ccccc23)c1O` [PAM, pamoic acid], which Kd [1] is on record?
Its Kd is 66 ± 4 µM.

And the Kd [2]?
The Kd was 170 ± 17 µM.
